In patent US20260098026A1, “M4 ACTIVATORS/MODULATORS AND USES THEREOF” (Cerevel Therapeutics, LLC, priority 2022, published 2026):
pEC50: −log10 of the molar value.

Key:
Type in all cases: cell-based
M4 mAChR = molecular target: T1, M4 mAChR (Homo sapiens, UniProt P08173); assay: cAMP TR-FRET assay with forskolin, M4-overexpressing CHO-K1 cells
T1 construct: expressed in transfected cells; host or cells: CHO-K1
T1 sequence (P08173 1-479): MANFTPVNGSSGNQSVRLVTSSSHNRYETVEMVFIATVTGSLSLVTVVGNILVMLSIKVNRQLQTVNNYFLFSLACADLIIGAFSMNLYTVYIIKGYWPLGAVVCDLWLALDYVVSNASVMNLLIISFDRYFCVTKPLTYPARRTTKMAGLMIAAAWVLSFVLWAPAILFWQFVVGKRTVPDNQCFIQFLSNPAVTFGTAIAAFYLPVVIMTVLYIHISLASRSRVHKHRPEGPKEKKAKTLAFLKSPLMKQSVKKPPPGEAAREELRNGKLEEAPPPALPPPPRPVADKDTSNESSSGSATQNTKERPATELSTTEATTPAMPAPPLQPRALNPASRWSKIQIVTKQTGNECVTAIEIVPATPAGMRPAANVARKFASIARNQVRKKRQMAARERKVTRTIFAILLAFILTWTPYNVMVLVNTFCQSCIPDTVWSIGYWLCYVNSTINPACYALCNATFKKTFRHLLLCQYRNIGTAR
Outline: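 CHO-K1 cells overexpressing the receptor were stimulated with forskolin to raise cAMP, so that Gi-mediated agonist decreases could be measured. cAMP was quantified by TR-FRET competition between cellular cAMP and labelled donor for anti-cAMP antibody, giving potency and efficacy.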

[1] = molecular target: T2, M1 muscarinic acetylcholine receptor (mAChR) (Homo sapiens, UniProt P11229); assay: FLIPR calcium assay (Fluo 8), M1-overexpressing CHO-K1 cells
T2 construct: expressed in transfected cells; host or cells: CHO-K1
T2 sequence (P11229 1-460): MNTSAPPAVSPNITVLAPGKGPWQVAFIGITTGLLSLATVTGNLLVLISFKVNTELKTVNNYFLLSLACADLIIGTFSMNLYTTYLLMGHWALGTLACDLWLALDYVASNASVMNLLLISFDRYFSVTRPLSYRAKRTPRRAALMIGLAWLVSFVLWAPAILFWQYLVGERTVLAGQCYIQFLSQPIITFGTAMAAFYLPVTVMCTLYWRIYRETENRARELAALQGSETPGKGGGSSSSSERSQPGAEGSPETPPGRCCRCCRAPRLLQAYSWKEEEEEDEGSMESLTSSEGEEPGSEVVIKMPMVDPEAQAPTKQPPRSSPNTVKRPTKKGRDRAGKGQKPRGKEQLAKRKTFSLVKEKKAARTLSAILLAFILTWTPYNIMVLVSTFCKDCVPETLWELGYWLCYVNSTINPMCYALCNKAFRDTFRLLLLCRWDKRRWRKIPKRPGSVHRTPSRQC
Experimental: Stimulation of a Gq-coupled G-protein coupled receptors (GPCRs), result in an efflux of calcium from the endoplasmic reticulum to the cytoplasm (Berridge, 1993), thus rendering this assay appropriate for the assessment of M1, M3 and M5 receptors. CHO-K1 cells overexpressing the M1, M3, or M5 muscarinic acetylcholine receptor (mAChR) were dispensed at 15,000 cells per well in 30 μl volume to 384-well plates and grown overnight at 37° C. in a 5% CO2 atmosphere. Fluo-8 Solution, 10 μl per well, was added to each well and incubated for 30 minutes at 37° C. in a 5% CO2 atmosphere. Compounds diluted in Hanks' balanced salt solution (HBSS) were transferred to the cell assay plate at 10 μl per well, and then read on a FLIPR instrument. EC50 and Emax figures were calculated from the resulting data for each receptor subtype.

[2] = molecular target: T3, M3 muscarinic acetylcholine receptor (mAChR) (Homo sapiens, UniProt P20309); assay: FLIPR calcium assay (Fluo 8), M3-overexpressing CHO-K1 cells
T3 construct: expressed in transfected cells; host or cells: CHO-K1
Outline: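 CHO-K1 cells overexpressing each human receptor seeded at 15,000 per well, grown overnight at 37° C., 5% CO2, then loaded with Fluo-8 for 30 min. Compounds in HBSS added and calcium response read on FLIPR; EC50 and Emax calculated per subtype.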

T3 sequence (P20309 whole entry): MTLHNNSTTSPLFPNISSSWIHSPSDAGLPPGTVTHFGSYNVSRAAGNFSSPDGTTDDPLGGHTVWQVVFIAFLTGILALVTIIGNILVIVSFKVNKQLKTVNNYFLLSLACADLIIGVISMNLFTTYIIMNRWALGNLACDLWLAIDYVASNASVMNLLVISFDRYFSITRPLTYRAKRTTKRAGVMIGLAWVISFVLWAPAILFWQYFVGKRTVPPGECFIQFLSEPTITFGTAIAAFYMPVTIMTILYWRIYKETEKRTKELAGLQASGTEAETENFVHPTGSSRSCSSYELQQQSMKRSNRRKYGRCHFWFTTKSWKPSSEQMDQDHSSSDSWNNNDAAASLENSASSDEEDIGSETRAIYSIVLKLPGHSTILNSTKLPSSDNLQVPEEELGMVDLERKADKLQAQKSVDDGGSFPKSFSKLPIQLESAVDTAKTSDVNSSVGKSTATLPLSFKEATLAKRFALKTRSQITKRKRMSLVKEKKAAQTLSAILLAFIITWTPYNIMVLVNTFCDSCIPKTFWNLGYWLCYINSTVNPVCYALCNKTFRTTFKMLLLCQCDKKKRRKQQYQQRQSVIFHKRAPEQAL

Row | Compound | Emax (M4 mAChR; cAMP TR-FRET with forskolin) [%] | Emax ([1]; FLIPR calcium) [%] | pEC50 ([2]; FLIPR calcium) | Emax (M4 mAChR; cAMP assay) [%] | Emax ([1]; FLIPR) [%] | pEC50 ([2]; FLIPR)
1 | CCOC(=O)N1CC2(CC[C@@H](N3CCN(c4cc(F)cnc4-c4ccc(F)nc4)CC3)C2)C1 [Compound A2, ethyl (6R)-6-[4-[5-fluoro-2-(6-fluoro-3-pyridyl)-3-pyridyl]piperazin-1-yl]-2-azaspiro[3.4]octane-2-carboxylate] | 80 to 100 | 19 to 49.9 | < 5.00 | – | – | –
2 | CCOC(=O)N1CC2(CC[C@@H](N3CCN(c4cc(F)cnc4-c4cccnc4OCC)CC3)C2)C1 [Compound A49] | 80 to 100 | 50 to 79.9 | < 5.00 | – | – | –
3 | CCOC(=O)N1CC2(CC[C@@H](N3CCN(c4cc(F)cnc4-c4cnc5c(c4)ncn5C)CC3)C2)C1 [Compound A51] | 80 to 100 | 19 to 49.9 | < 5.00 | – | – | –
4 | CCOC(=O)N1CC2(CC[C@@H](N3CCN(c4cc(F)cnc4-c4cn/c(=N\C)[nH]c4)CC3)C2)C1 [Compound A70] | 80 to 100 | 19 to 49.9 | < 5.00 | – | – | –
5 | CCOC(=O)N1CC2(CC[C@@H](N3CCN(c4cc(F)cnc4-c4ccc(NC(C)=O)nc4)CC3)C2)C1 [Compound A75] | 80 to 100 | 19 to 49.9 | < 5.00 | – | – | –
6 | CCOC(=O)N1CC2(CC[C@@H](N3CCN(c4cc(F)cnc4-c4cncc(O)c4)CC3)C2)C1 [Compound A82] | 80 to 100 | 19 to 49.9 | < 5.00 | – | – | –
7 | CCOC(=O)N1CC2(CC[C@@H](N3CCN(c4cc(F)cnc4-c4cnc(NC(C)C)nc4)CC3)C2)C1 [Compound A87] | 80 to 100 | 19 to 49.9 | < 5.00 | – | – | –
8 | CCOC(=O)N1CC2(CC[C@@H](N3CCN(c4cc(F)cnc4-c4cnc5ccnn5c4)CC3)C2)C1 [Compound A100] | 80 to 100 | 19 to 49.9 | < 5.00 | – | – | –
9 | CCOC(=O)N1CC2(CC[C@@H](N3CCN(c4cc(F)cnc4-c4ccc(C(=O)NC)cc4)CC3)C2)C1 [Compound A103] | 80 to 100 | 19 to 49.9 | < 5.00 | – | – | –
10 | CCOC(=O)N1CC2(CC[C@@H](N3CCN(c4cc(F)cnc4-c4cnc(OC)c(F)c4)CC3)C2)C1 [Compound A139] | 80 to 100 | < 19 | < 5.00 | – | – | –
11 | CCOC(=O)N1CC2(CC[C@@H](N3CCN(c4cc(F)cnc4-c4cnc(OC)nc4)CC3)C2)C1 [Compound A146] | 80 to 100 | 19 to 49.9 | < 5.00 | – | – | –
12 | CCOC(=O)N1CC2(CC[C@@H](N3CCN(c4cc(F)cnc4-c4cnc(OC(C)C)nc4)CC3)C2)C1 [Compound A158] | – | – | – | 80 to 100 | 19 to 49.9 | < 5.00
13 | CCOC(=O)N1CC2(CC[C@@H](N3CCN(c4cc(C#N)cnc4-c4cnccn4)CC3)C2)C1 [Compound A272] | – | – | – | 19 to 49.9 | – | < 5.00
14 | CCOC(=O)N1CC2(CC[C@@H](N3CCN(c4cc(F)cnc4-c4cnn(C(F)(F)F)c4)CC3)C2)C1 [Compound A285] | – | – | – | 80 to 100 | – | < 5.00
15 | CCOC(=O)N1CC2(CC[C@H](N3CCC(c4cc(F)cnc4-c4ccc(F)cn4)CC3)C2)C1 [Compound A293] | – | – | – | 80 to 100 | – | < 5.00

Continued, values first:

Row | Emax (M4 mAChR; cAMP TR-FRET with forskolin) [%] | Emax ([1]; FLIPR calcium) [%] | pEC50 ([2]; FLIPR calcium) | Emax (M4 mAChR; cAMP assay) [%] | Emax ([1]; FLIPR) [%] | pEC50 ([2]; FLIPR) | Compound
16 | – | 19 to 49.9 | < 5.00 | – | – | – | CCOC(=O)N1CC2(CC[C@@H](N3CCN(c4cccnc4N4CCCC4)CC3)C2)C1 [Compound A3, ethyl (6R)-6-[4-(2-pyrrolidin-1-yl-3-pyridyl)piperazin-1-yl]-2-azaspiro[3.4]octane-2-carboxylate]
17 | 80 to 100 | 19 to 49.9 | < 5.00 | – | – | – | CCOC(=O)N1CC2(CC[C@@H](N3CCN(c4cc(F)cnc4-c4ccncc4)CC3)C2)C1 [Compound A53]
18 | 80 to 100 | 19 to 49.9 | < 5.00 | – | – | – | CCOC(=O)N1CC2(CC[C@@H](N3CCN(c4cc(F)cnc4-c4cncs4)CC3)C2)C1 [Compound A59]
19 | 80 to 100 | 19 to 49.9 | < 5.00 | – | – | – | CCOC(=O)N1CC2(CC[C@@H](N3CCN(c4cc(F)cnc4-c4ccnn4C)CC3)C2)C1 [Compound A67]
20 | 80 to 100 | 19 to 49.9 | < 5.00 | – | – | – | CCOC(=O)N1CC2(CC[C@@H](N3CCN(c4cc(F)cnc4-c4ccnn4CC)CC3)C2)C1 [Compound A93]
21 | 80 to 100 | 19 to 49.9 | < 5.00 | – | – | – | CCOC(=O)N1CC2(CC[C@@H](N3CCN(c4cc(F)cnc4-c4ccccc4O)CC3)C2)C1 [Compound A104]
22 | 80 to 100 | 19 to 49.9 | < 5.00 | – | – | – | CCOC(=O)N1CC2(CC[C@@H](N3CCN(c4cc(F)cnc4-c4cnoc4C)CC3)C2)C1 [Compound A113]
23 | 80 to 100 | 19 to 49.9 | < 5.00 | – | – | – | CCOC(=O)N1CC2(CC[C@@H](N3CCN(c4cc(F)cnc4-c4conc4C)CC3)C2)C1 [Compound A140]
24 | – | – | – | 80 to 100 | 19 to 49.9 | < 5.00 | CCOC(=O)N1CC2(CC[C@@H](N3CCN(c4cc(F)cnc4-c4cnc(F)nc4)CC3)C2)C1 [Compound A184]
25 | – | – | – | 80 to 100 | 19 to 49.9 | < 5.00 | CCOC(=O)N1CC2(CC[C@@H](N3CCN(c4cc(F)cnc4-c4cnc(C)nc4)CC3)C2)C1 [Compound A185]
26 | – | – | – | 80 to 100 | – | < 5.00 | CCOC(=O)N1CC2(CC[C@@H](N3CCN(c4cc(F)cnc4-c4ccc(Cl)cn4)CC3)C2)C1 [Compound A259]
27 | – | – | – | 80 to 100 | – | < 5.00 | CCOC(=O)N1CC2(CC[C@@H](N3CCN(c4cc(F)cnc4C4CCN(C)CC4)CC3)C2)C1 [Compound A273]
28 | – | – | – | 80 to 100 | – | < 5.00 | CCOC(=O)N1CC2(CC[C@H](N3CCN(c4cc(F)cnc4C4CCOCC4)CC3)C2)C1 [Compound A274]
29 | – | – | – | 80 to 100 | – | < 5.00 | CCOC(=O)N1CC2(CC[C@@H](N3CCN(c4cc(Cl)cnc4C4CC5(COC5)C4)CC3)C2)C1 [Compound A279]
30 | – | – | – | 80 to 100 | – | < 5.00 | CCOC(=O)N1CC2(CC[C@@H](N3CCN(c4cc(F)cnc4-c4ncccc4F)CC3)C2)C1 [Compound A283]
31 | – | – | – | 80 to 100 | – | < 5.00 | CCOC(=O)N1CC2(CC[C@@H](N3CCN(c4cc(F)cnc4-c4ccnc(F)n4)CC3)C2)C1 [Compound A284]
32 | – | – | – | 19 to 49.9 | – | < 5.00 | CCOC(=O)N1CC2(CC[C@@H](N3CCN(c4cc(F)cnc4NC4CC5(COC5)C4)CC3)C2)C1 [Compound A288]
33 | – | – | – | 80 to 100 | 19 to 49.9 | < 5.00 | CCOC(=O)N1CC2(CC[C@@H](N3CCN(c4cc(F)cnc4N4CCOCC4)CC3)C2)C1 [Compound A289]
34 | – | – | – | 80 to 100 | – | < 5.00 | CCOC(=O)N1CC2(CC[C@@H](N3CCN(c4cc(F)cnc4-n4cnc(C)c4)CC3)C2)C1 [Compound A290]
35 | – | – | – | 50 to 79.9 | – | < 5.00 | CCOC(=O)N1CC2(CC[C@@H](N3CCN(c4cc(F)cnc4-n4ccc(C)n4)CC3)C2)C1 [Compound A291]
